Reference: patent US20260314597A1, “A NOVEL APPROACH TO INTERFERE IN THE PHENYLPROPANOID BIOSYNTHETIC PATHWAY TO REDUCE PINK-RIB DISORDER IN FRESH LETTUCE” (University of Florida Research Foundation, Inc., priority 2022, published 2026)
Entries after “also recorded” stand apart in the source; their conditions may differ.

Columns and labels:
[1] = tested on: iceberg and Romaine lettuce midribs; assay: Visual (subjective) pink rib development in wounded, immersed lettuce midribs stored at 5° C.; type: in vivo; conditions: for duration of inhibition of pink rib development: 30 s immersion, 5° C.; for effect on pink rib discoloration: iceberg and Romaine
Protocol: Six preliminary experiments were performed to determine treatment conditions for the three final experiments reported here. It was determined that the method developed by Cantwell (2016) induced pink rib discoloration in lettuce midribs during storage at 5° C. via mimicking mechanical damage and was, therefore, selected for use in all preliminary and final tests. […] Concentrations evaluated were: L-cysteine (0.4, 0.8, 2.1, 4.1, 8.3 mM), naringenin (0.2, 0.4, 0.9, 1.8, 3.7 mM), serotonin (2.8, 5.7 mM), and melatonin (0.2, 0.4, 1.1, 2.2, 4.3 mM) (data not presented). […] Therefore, this study employed the one or two concentrations for each compound with the greatest potential efficacy in three independent tests, Test 1 to 3 (Table 1).
For Test 1, the evaluations for pink rib development, protein quantification, and enzyme activity were conducted with Romaine and iceberg lettuce heads (36 heads per type; cultivars unknown) purchased (February 2020) upon arrival at a local grocery store in Gainesville, FL, and immediately transported to the Postharvest Horticulture Laboratory at the University of Florida in Gainesville, FL. For Test 2, metabolite extraction and detection were conducted with commercially grown, harvested, and cooled Romaine (‘Tall Guzmaine’) and iceberg (‘Chosen’) lettuce (December 2020) grown in Belle Glade, FL. For Test 3, untargeted metabolomics was performed using commercially grown, harvested, and cooled Romaine (‘Manatee’) lettuce grown in Belle Glade, FL (April 2021). To keep the lettuce head samples cool while preventing freeze damage during transport, a 3- to 6-inch layer of crushed ice was placed on the bottom of each 114-L cooler. A piece of waxed, corrugated fiberboard was placed on top of the ice prior to packing with the lettuce samples for transport the same day to the Postharvest Horticulture Laboratory in Gainesville (approximately 4 h distant).
(§1) In all tests, experimental setup began immediately upon arrival to the laboratory. 90 outer leaves were randomly selected from 18 to 22 lettuce heads that met commercial and damage-free quality standards. A midrib segment (12.5 cm) was excised from the center of each leaf and excess leaf blade tissue was trimmed parallel to the midrib. This procedure was adapted from the wounding procedure of Cantwell (2016). Each midrib was then partially sliced transversally at 1.3-cm increments along the midrib. Midribs (n=15) were immediately immersed for 30 s in one of five treatment solutions: deionized water (wounded control), L-cysteine (4.1 mM), naringenin (1.8 mM) with 20% dimethyl sulfoxide (DMSO), serotonin (2.8 or 5.7 mM) or melatonin (4.3 mM) with 0.50% DMSO. Immediately following immersion, the midribs for each treatment were patted dry using paper towels and placed (n=5) in a breathable, high-density polyethylene bag (n=3) (Narrow Profile Produce Bags [14×18 inches] Model No. S-19156, Uline®, Pleasant Prairie, WI). Unwounded control midribs were stored in the same manner. To allow for direct comparison, each cut site on each midrib was assigned an initial discoloration value on day 1 based on the coloration of the rib. Samples were stored at 5° C. with 95-98% relative humidity (RH) for 5 d, simulating commercial storage.
All chemicals were of laboratory or reagent grade from Alfa Aesar (Thermo Fisher Scientific, Ward Hill, MA, USA) or Phyto Technology Laboratories (Shawnee Mission, KS, USA). L-cysteine (4.1 mM) solution was prepared by dissolving […] in 100 ml deionized water. Naringenin (1.8 mM) solution was prepared by dissolving […] in 20 mL of DMSO and diluting to a 100 mL volume with deionized water. A stock solution of serotonin (5.7 mM) was prepared by dissolving 100 mg of serotonin in 100 ml of deionized water; a second solution of serotonin (2.8 mM) was prepared by diluting the stock solution two-fold with deionized water. […]

[2] = tested on: iceberg and Romaine lettuce midribs; assay: Objective pink rib severity: a* value by RGB image analysis of cut sites; type: in vivo
Text: as §1
Objective evaluations were also made after 1, 3, and 5 d by capturing an image of each wounded midrib using a digital camera (Nikon D5200, Nikon, Melville, NY, USA) under full spectrum LED lighting (Sunco Lighting, Valencia, CA, USA) with 4100 Lumens at a distance of 1.12 m. Only unwounded and treated (L-cysteine or melatonin) midribs from Test 1 were measured using this method. The camera settings were on manual mode ISO400, shutter speed 1/125, aperture 5.6, and no zoom or flash; distance from the tissue was approximately 18 inches. The white balance of the camera was set with a gray card prior to each imaging session. GNU Image Manipulation Program (GIMP, version 2.10.14; The GIMP Project c/o GNOME Foundation, Orinda, CA, USA) was used to isolate pixels from an area 1 mm in width along the length of each cut site. Because a cut site is required as a guide for pixel extraction, no data was collected from images of the unwounded midribs.
Isolated pixels were converted from the RGB to the L*a*b* color space (Commission Internationale de l'Elcairage) with the “convertColor” function in R version 4.0.0 (R Core Team, 2020), using Illuminant D65 as the white reference. The mean a* value was calculated for each group of isolated cut site pixels at each time point. In the L*a*b* color space, […] the degree of redness (+) or greenness (−); thus, the mean a* at each cut site quantified the severity of pink rib discoloration. R was also applied to subset the data, to ensure that the cut sites chosen for further analysis had similar initial color. The a* values ranged from −3 to 0 for iceberg lettuce and −6 to −3 for Romaine.
(§2) The imaging data (a* value), enzyme activity (PAL and PPO), and metabolite (chlorogenic acid) results were expressed as mean±standard error and analyzed by lettuce type (iceberg or Romaine). For imaging data, an unpaired t-test was used to identify differences within a treatment throughout storage and among treatment groups at each time point. Treatment groups were defined as wounded, unwounded, L-cysteine, and melatonin. […] Analyses of variance were performed for PAL, PPO, and metabolite analyses using SAS software (version 9.4; SAS Institute, Cary, NC) to identify differences among treatment groups. Differences among treatments groups were separated by Tukey's Honest Significant Difference (HSD) test with a confidence level of 95%. The correlation between visual rating and a* value was evaluated for significance via an F-test, from which the P-value of the correlation was calculated.

polyphenol oxidase (PPO) = assay: PPO activity in treated wounded midribs; type: biochemical, lettuce (iceberg, Romaine); conditions: 5 d at 5° C.; for PPO activity: L-cysteine 4.1 mM or melatonin 4.3 mM; for effect on PPO activity: iceberg and Romaine
Text: as §1
PPO activity was prepared and determined as reported by Teng et al. (2019) with slight modifications. Lettuce samples (300 mg) were homogenized in 150% (w/v) chilled phosphate buffer (pH 6.2, 0.05 M). Following chilling of test tubes with samples in an ice bath, samples were centrifuged at 9660×g for 10 min at 4° C. The increase in absorbance was measured every 3 s for 1 min. The slope of the linear portion of the time curve was calculated. One unit (U) of PPO activity was defined as an increase in OD410 of 0.1 unit within 1 min.
as §2

Row | PPO activity (polyphenol oxidase (PPO); Romaine, wounded control 5.1) [U] | PPO activity (polyphenol oxidase (PPO); iceberg, wounded control 1.7) [U] | SMILES | duration of inhibition of pink rib development ([1]; melatonin 4.3 mM, Romaine, vs wounded control) [days] | duration of inhibition of pink rib development ([1]; melatonin 4.3 mM, iceberg, vs wounded control) [days] | pink rib discoloration (visual) ([1]; melatonin 4.3 mM, Romaine, over 5 d at 5° C. (P=0.0058)) | effect on pink rib discoloration ([1]; melatonin 4.3 mM, 5 d at 5° C., vs controls) | change of a* value ([2]; melatonin 4.3 mM, Romaine, between days 3 and 5) | a* value versus control ([2]; melatonin 4.3 mM, Romaine, day 5, control mean 1.49) | mean a* value ([2]; melatonin 4.3 mM, Romaine, day 5 at 5° C.) | change of a* value ([2]; melatonin 4.3 mM, iceberg, throughout 5 d storage) | a* values versus control treatments, overall ([2]; melatonin, iceberg and Romaine) | effect on PPO activity (polyphenol oxidase (PPO)) | effect on pink rib discoloration ([1]; L-cysteine 4.1 mM, up to 5 d at 5° C., vs wounded control) | change of a* value ([2]; L-cysteine 4.1 mM, Romaine, after 3 d (P=0.0242)) | change of a* value ([2]; L-cysteine 4.1 mM, iceberg, after 3 d (P=0.0242)) | change of a* value ([2]; L-cysteine 4.1 mM, iceberg, after 5 d (P=0.00059))
1 | 6.2 | 2.6 | COc1ccc2[nH]cc(CCNC(C)=O)c2c1 [melatonin] | 3 | 5 | slight (2=slight) | equal to or similar to unwounded controls; also recorded: dramatically less pink rib discoloration | increasing | no longer significantly different | −0.67 | did not increase throughout storage | significantly lower a* values | no significant differences in PPO activity; also recorded: no effect on PPO activity; also recorded: neither enzyme activity (PAL or PPO) nor chlorogenic acid concentration were impacted; also recorded: did not significantly affect PAL or PPO enzyme activities | – | – | – | –
2 | 6.4 | 2.6 | N[C@@H](CS)C(=O)O [L-cysteine] | – | – | – | – | – | – | – | – | – | no significant differences in PPO activity; also recorded: no effect on PPO activity; also recorded: neither PPO activity nor pink rib expression were reduced | negligible effect on reducing pink rib; also recorded: equal or greater discoloration; also recorded: significantly higher discoloration than the control after 5 d; also recorded: ineffective in reducing pink rib; also recorded: neither PPO activity nor pink rib expression were reduced | increase | increased | increased
